Values after ≈ are worked out from the molar mass of the structure shown. Read-outs that look alike come from different tables or passages of the source.
What was measured:
Assay type in all cases: cell-based
Botrtyis cinerea (Bc) = assay: In vitro pathogen growth inhibition assay, Bc; settings: 48 h
In short: (§1)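 Spores in 17% V8 liquid medium, or 1.5 mm Rs mycelial plugs in ¼ PDB, incubated with compound; final concentration checked by OD600 for precipitation. OD readings at 24 and 48 h, blank-subtracted, plus visual ratings; value is concentration giving ≥90% growth inhibition.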

[1] = system: Collectotrichum graminicola (Cg); assay: In vitro pathogen growth inhibition assay, Cg; settings: 48 h
In short: as §1

Diplodia maydis (Dm) = assay: In vitro pathogen growth inhibition assay, Dm; settings: Stenocarpella maydis, 48 h
In short: (§2)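 Value reported is the compound concentration reaching ≥90% growth inhibition, from OD readings at 24 and 48 h after blank subtraction, confirmed visually. Inoculum was spores diluted in 17% V8 medium, except Rs, using 1.5 mm mycelial plugs in ¼ PDB; actual compound concentration corrected via OD600.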

[2] = system: Fusarium moniliforme (Fm); assay: In vitro pathogen growth inhibition assay, Fm; settings: Fusarium verticillioides
In short: as §1

[3] = system: Fusarium virguliforme (Fv); assay: In vitro pathogen growth inhibition assay, Fv
In short: as §2

[4] = system: Phytophthora capsici (Pc); assay: In vitro pathogen growth inhibition assay, Pc; settings: 48 h
In short: as §2

Rhizoctonia solani (Rs) = assay: In vitro pathogen growth inhibition assay, Rs (mycelial plugs); settings: Rhizoctonia solani, 48 h
In short: as §2

Septoria tritici (St) = assay: In vitro pathogen growth inhibition assay, St; settings: Zymoseptoria tritici, 48 h
In short: as §1

[5] = ≥90% growth inhibition, 48 hours, vs 2% DMSO control, read-out: Compound Concentration (ppm) sufficient for ≥90% inhibition of Bc
[6] = ≥90% growth inhibition, 48 hours, vs 2% DMSO control, read-out: Compound Concentration (ppm) sufficient for ≥90% inhibition of Cg
[7] = ≥90% growth inhibition, 48 hours, vs 2% DMSO control, read-out: Compound Concentration (ppm) sufficient for ≥90% inhibition of Dm
[8] = ≥90% growth inhibition, 48 hours, vs 2% DMSO control, read-out: Compound Concentration (ppm) sufficient for ≥90% inhibition of Fm
[9] = ≥90% growth inhibition, 48 hours, vs 2% DMSO control, read-out: Compound Concentration (ppm) sufficient for ≥90% inhibition of Fv
[10] = ≥90% growth inhibition, 48 hours, vs 2% DMSO control, read-out: Compound Concentration (ppm) sufficient for ≥90% inhibition of Pc
[11] = ≥90% growth inhibition, mycelial plugs, 48 hours, vs 2% DMSO control, read-out: Compound Concentration (ppm) sufficient for ≥90% inhibition of Rs
[12] = ≥90% growth inhibition, 48 hours, vs 2% DMSO control, read-out: Compound Concentration (ppm) sufficient for ≥90% inhibition of St
[13] = ≥90% inhibition, 48 hours vs 2% DMSO control, read-out: Compound Concentration (ppm) sufficient for ≥90% inhibition of growth, Bc
[14] = ≥90% inhibition, 48 hours vs 2% DMSO control, read-out: Compound Concentration (ppm) sufficient for ≥90% inhibition of growth, Cg
[15] = ≥90% inhibition, 48 hours vs 2% DMSO control, read-out: Compound Concentration (ppm) sufficient for ≥90% inhibition of growth, Dm
[16] = ≥90% inhibition, 48 hours vs 2% DMSO control, read-out: Compound Concentration (ppm) sufficient for ≥90% inhibition of growth, Fm
[17] = ≥90% inhibition, 48 hours vs 2% DMSO control, read-out: Compound Concentration (ppm) sufficient for ≥90% inhibition of growth, Fv
[18] = ≥90% inhibition, 48 hours vs 2% DMSO control, read-out: Compound Concentration (ppm) sufficient for ≥90% inhibition of growth, Pc
[19] = ≥90% inhibition, mycelial plugs, 48 hours vs 2% DMSO control, read-out: Compound Concentration (ppm) sufficient for ≥90% inhibition of growth, Rs
[20] = ≥90% inhibition, 48 hours vs 2% DMSO control, read-out: Compound Concentration (ppm) sufficient for ≥90% inhibition of growth, St

| Structure (SMILES) | IC90 (Botrtyis cinerea (Bc); [5]) | IC90 [1, 6] | IC90 (Diplodia maydis (Dm); [7]) | IC90 [2, 8] | IC90 [3, 9] | IC90 [4, 10] | IC90 (Rhizoctonia solani (Rs); [11]) | IC90 (Septoria tritici (St); [12]) | other results |
| --- | --- | --- | --- | --- | --- | --- | --- | --- | --- |
| COc1ccc(F)cc1[C@H](Cn1c(=O)n([C@H](C)C(N)=O)c(=O)c2c(C)c(-n3nccn3)sc21)OCC(C)(C)C#N [Compound I-255] | 2 µg/mL (≈ 3.51 µM) | ≥ 10 µg/mL | ≥ 10 µg/mL | 2 µg/mL (≈ 3.51 µM) | ≥ 10 µg/mL | > 50 µg/mL | 2 µg/mL (≈ 3.51 µM) | > 50 µg/mL | – |
| CCOC(=O)c1sc2c(c1C)c(=O)n(C(C)(C)C(=O)NC(C)C)c(=O)n2CCc1cc(F)ccc1OCCC#N [Compound I-339] | 10 µg/mL (≈ 17.5 µM) | > 50 µg/mL | > 50 µg/mL | 2 µg/mL (≈ 3.49 µM) | 2 µg/mL (≈ 3.49 µM) | > 50 µg/mL | 50 µg/mL (≈ 87.3 µM) | > 50 µg/mL | – |
| COc1ccc(F)cc1[C@H](Cn1c(=O)n([C@H](C)C(=O)NC(C)C)c(=O)c2c(C)c(-n3cccn3)sc21)OC(C)C [Compound I-127] | – | – | – | – | – | – | – | – | IC90 (Botrtyis cinerea (Bc); [13]): 2 µg/mL (≈ 3.5 µM); IC90 [1, 14]: 2 µg/mL (≈ 3.5 µM); IC90 (Diplodia maydis (Dm); [15]): 2 µg/mL (≈ 3.5 µM); IC90 [2, 16]: 0.4 µg/mL (≈ 0.7 µM); IC90 [3, 17]: 0.4 µg/mL (≈ 0.7 µM); IC90 [4, 18]: > 50 µg/mL; IC90 (Rhizoctonia solani (Rs); [19]): 2 µg/mL (≈ 3.5 µM); IC90 (Septoria tritici (St); [20]): > 50 µg/mL |
| COc1ccc(Cl)cc1[C@H](Cn1c(=O)n(C(C)(C)C(=O)NC(C)C)c(=O)c2c(C)c(-n3nccn3)sc21)OCC(C)(C)C#N [Compound I-272] | 2 µg/mL (≈ 3.11 µM) | 2 µg/mL (≈ 3.11 µM) | 2 µg/mL (≈ 3.11 µM) | 2 µg/mL (≈ 3.11 µM) | 2 µg/mL (≈ 3.11 µM) | > 50 µg/mL | 2 µg/mL (≈ 3.11 µM) | > 50 µg/mL | – |
| COc1ccc(F)cc1[C@H](Cn1c(=O)n(CC(=O)N2CCCC2)c(=O)c2c(C)c(-n3cccn3)sc21)OC(C)C [Compound I-128] | – | – | – | – | – | – | – | – | IC90 (Botrtyis cinerea (Bc); [13]): 2 µg/mL (≈ 3.51 µM); IC90 [1, 14]: 10 µg/mL (≈ 17.6 µM); IC90 (Diplodia maydis (Dm); [15]): > 10 µg/mL; IC90 [2, 16]: 0.4 µg/mL (≈ 0.702 µM); IC90 [3, 17]: 2 µg/mL (≈ 3.51 µM); IC90 [4, 18]: > 50 µg/mL; IC90 (Rhizoctonia solani (Rs); [19]): ≥ 2 µg/mL; IC90 (Septoria tritici (St); [20]): > 50 µg/mL |
| COc1ccc(F)cc1CCn1c(=O)n(C(C)(C)C(=O)NC(C)C)c(=O)c2c(C)c(-n3nccn3)sc21 [Compound I-296] | 2 µg/mL (≈ 3.78 µM) | 2 µg/mL (≈ 3.78 µM) | 10 µg/mL (≈ 18.9 µM) | 2 µg/mL (≈ 3.78 µM) | 2 µg/mL (≈ 3.78 µM) | > 50 µg/mL | 2 µg/mL (≈ 3.78 µM) | > 50 µg/mL | – |
| COc1ccc(F)cc1[C@H](Cn1c(=O)n(C(C)(C)C(=O)N2CCCC2)c(=O)c2c(C)c(-n3nccn3)sc21)OCCC#N [Compound I-195] | 2 µg/mL (≈ 3.28 µM) | 2 µg/mL (≈ 3.28 µM) | ≥ 2 µg/mL | 2 µg/mL (≈ 3.28 µM) | 2 µg/mL (≈ 3.28 µM) | > 50 µg/mL | 2 µg/mL (≈ 3.28 µM) | > 50 µg/mL | – |
| COc1ccc(F)cc1[C@H](Cn1c(=O)n(C(C)(C)C(=O)N2CCCCC2)c(=O)c2c(C)c(-n3cccn3)sc21)OC1CCOCC1 [Compound I-166] | 2 µg/mL (≈ 3.06 µM) | 2 µg/mL (≈ 3.06 µM) | ≥ 2 µg/mL | ≥ 0.08 µg/mL | 2 µg/mL (≈ 3.06 µM) | > 50 µg/mL | 10 µg/mL (≈ 15.3 µM) | ≥ 50 µg/mL | – |
| Cc1c(-n2nccn2)sc2c1c(=O)n(C(C)(C)C(=O)NC(C)C)c(=O)n2C[C@H](OCCO)c1cc(F)ccc1O [Compound I-271] | 10 µg/mL (≈ 17.4 µM) | ≥ 10 µg/mL | 50 µg/mL (≈ 87 µM) | 2 µg/mL (≈ 3.48 µM) | 10 µg/mL (≈ 17.4 µM) | 50 µg/mL (≈ 87 µM) | 2 µg/mL (≈ 3.48 µM) | > 50 µg/mL | – |
| COc1ccccc1[C@@H](O)Cn1c(=O)n(C(C)(C)C(=O)N2CCCC2)c(=O)c2c(C)c(-n3nccn3)sc21 [Compound I-215] | – | – | – | – | – | – | – | – | IC90 (Botrtyis cinerea (Bc); concentration sufficient to ≥90% inhibition of growth, 48 hours vs 2% DMSO control, read-out: Compound Concentration (ppm) for ≥90% inhibition, Bc): 10 µg/mL (≈ 18.6 µM); IC90 ([1]; concentration sufficient to ≥90% inhibition of growth, 48 hours vs 2% DMSO control, read-out: Compound Concentration (ppm) for ≥90% inhibition, Cg): 50 µg/mL (≈ 92.8 µM); IC90 (Diplodia maydis (Dm); concentration sufficient to ≥90% inhibition of growth, 48 hours vs 2% DMSO control, read-out: Compound Concentration (ppm) for ≥90% inhibition, Dm): > 50 µg/mL; IC90 ([2]; concentration sufficient to ≥90% inhibition of growth, 48 hours vs 2% DMSO control, read-out: Compound Concentration (ppm) for ≥90% inhibition, Fm): 10 µg/mL (≈ 18.6 µM); IC90 ([3]; concentration sufficient to ≥90% inhibition of growth, 48 hours vs 2% DMSO control, read-out: Compound Concentration (ppm) for ≥90% inhibition, Fv): 10 µg/mL (≈ 18.6 µM); IC90 ([4]; concentration sufficient to ≥90% inhibition of growth, 48 hours vs 2% DMSO control, read-out: Compound Concentration (ppm) for ≥90% inhibition, Pc): > 50 µg/mL; IC90 (Rhizoctonia solani (Rs); concentration sufficient to ≥90% inhibition of growth, 48 hours vs 2% DMSO control, read-out: Compound Concentration (ppm) for ≥90% inhibition, Rs): 0.08 µg/mL (≈ 0.149 µM); IC90 (Septoria tritici (St); concentration sufficient to ≥90% inhibition of growth, 48 hours vs 2% DMSO control, read-out: Compound Concentration (ppm) for ≥90% inhibition, St): > 50 µg/mL |
